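The compound was tested at five concentrations on cells cultured in 96-well plates, with a 48-hour exposure period. Here, GI50 denotes the concentration required for 50% inhibition of growth. Definition used: TGI = concentration required for complete inhibition of growth.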 Where a SMILES comes first, the peptide text is derived from it. The star is where a group is joined. Bn = c1ccc(C*)cc1
Legend:
Experiment in all cases: NCI tumour cell line growth inhibition, 48 h
HCT-116 colon = test system: HCT-116 colon
UACC-257 melanoma = test system: UACC-257 melanoma
OVCAR-4 ovarian = test system: OVCAR-4 ovarian
A549 NSCLC = test system: A549 NSCLC
NCI-H226 lung = test system: NCI-H226 lung
SK-MEL-2 melanoma = test system: SK-MEL-2 melanoma
HT29 colon = test system: HT29 colon
MOLT-4 leukemia = test system: MOLT-4 leukemia
SNB-75 CNS = test system: SNB-75 CNS
PC-3 prostate = test system: PC-3 prostate

Row | Structure (SMILES) | TGI (HCT-116 colon) | TGI (UACC-257 melanoma) | TGI (OVCAR-4 ovarian) | TGI (A549 NSCLC) | TGI (NCI-H226 lung) | TGI (SK-MEL-2 melanoma) | TGI (HT29 colon) | TGI (MOLT-4 leukemia) | TGI (SNB-75 CNS) | TGI (PC-3 prostate) | GI50 (PC-3 prostate)
1 | O=C(O)c1c2c(cc3c1CC1(Cc4ccccc4C1=O)C3)CCC2 (stereo unspecified) | > 100 µM | > 100 µM | > 100 µM | > 100 µM | > 85.8 µM | 55.1 µM | > 69.7 µM | 36 µM | > 94.6 µM | > 100 µM | 
2 | COC(=O)c1cc(C)ccc1CC(Cc1ccc(C)cc1)C(=O)OC (stereo unspecified) | > 100 µM | > 100 µM | > 100 µM | > 100 µM | > 100 µM | > 90.3 µM | 80.4 µM | > 49.5 µM | > 90.7 µM | > 100 µM | 
3 | O=C(CNCc1ccccc1)Oc1c(Cl)c(Cl)c(Cl)c(Cl)c1Cl | > 100 µM | 54.8 µM | > 100 µM | 69.1 µM | 83.1 µM | 92 µM | > 100 µM | 50.6 µM | > 100 µM | 48.1 µM | 
4 | COc1cc(C=C2C(=O)NC(=S)NC2=O)cc(OC)c1OC | > 100 µM | > 100 µM | > 100 µM | > 100 µM | > 100 µM | > 100 µM | > 100 µM | > 100 µM | > 100 µM | > 100 µM | 
5 | O=C1CCc2ccc3c(c21)CC1(Cc2ccccc2C1)C3 | 17.6 µM | 35.7 µM | > 100 µM | 29.6 µM | 67.8 µM | 38.7 µM | 22 µM | > 100 µM | > 100 µM | > 100 µM | 
6 | COP(=O)(OC)C12CCOCCN1c1ccccc1C2=O (stereo unspecified) | > 100 µM | > 100 µM | > 100 µM | > 100 µM | > 100 µM | > 100 µM | > 100 µM | > 100 µM | > 100 µM | > 100 µM | 
7 | CSC(SC)=C1C(=O)N(c2ccccc2)N=C1C | 54 µM | > 100 µM | > 100 µM | > 100 µM | 87.1 µM | 46.8 µM | > 100 µM | 52.9 µM | > 100 µM | > 100 µM | 
8 | COc1ccc2c(c1)CCN=C2c1ccccc1CCCCl | 61.3 µM | > 100 µM | 52.2 µM | > 100 µM | > 100 µM | > 100 µM | 58.2 µM | 42.4 µM | > 100 µM | > 100 µM | 
9 | CCOC(=O)C(C)c1nc2c(Cl)c3ncccc3cc2[nH]c1=O (stereo unspecified) | > 100 µM | > 100 µM | > 100 µM | > 100 µM | > 100 µM | > 100 µM | > 100 µM | > 100 µM | > 100 µM | > 100 µM | 
10 | Cc1cc(/N=C/c2ccc(C#N)cc2)n(-c2ccccc2)n1 | > 100 µM | > 100 µM | > 100 µM | > 100 µM | > 100 µM | > 100 µM | > 100 µM | > 100 µM | > 100 µM | > 100 µM | 
11 | CC(C)(C)c1ccc(OCC(=O)O)c(Cl)c1 | > 100 µM | > 100 µM | > 100 µM | > 100 µM | > 100 µM | > 100 µM | > 100 µM | > 100 µM | > 100 µM | > 100 µM | 
12 | c1ccc(C2=Nn3c(CCCCCCCCc4nnc5n4N=C(c4ccccc4)CS5)nnc3SC2)cc1 | > 100 µM | > 100 µM | > 100 µM | > 100 µM | > 100 µM | > 88.7 µM | > 50.6 µM | > 77.9 µM | 33.6 µM | > 100 µM | 
13 | Cc1ccc(-c2c(C#N)c(-c3ccc([N+](=O)[O-])cc3)c(C#N)c(=O)n2NS(=O)(=O)c2ccccc2)cc1 | > 100 µM | > 100 µM | > 100 µM | > 100 µM | > 100 µM | > 100 µM | > 100 µM | 52.8 µM | > 100 µM | > 100 µM | 
14 | COC(=O)[C@H](Cc1ccccc1)NC(=O)c1ccc(CNC(=O)/C=C/c2cccc(Oc3ccccc3)c2)cc1 | > 100 µM | 21.8 µM | > 100 µM | > 100 µM | > 100 µM | 27.7 µM | > 100 µM | > 100 µM | > 100 µM | > 100 µM | 
15 | N#Cc1c(C#N)c(-c2ccccc2)n(-c2ccccc2)c1N | > 100 µM | > 100 µM | > 100 µM | > 100 µM | > 100 µM | > 100 µM | > 100 µM | > 100 µM | 86.4 µM | > 100 µM | 
16 | O/C(=C\c1nc2ccccc2nc1NC12CC3CC(CC(C3)C1)C2)c1ccc(Br)cc1 | > 10 µM | > 10 µM | > 10 µM | > 10 µM | > 10 µM | > 10 µM | > 10 µM | > 10 µM | > 10 µM | > 10 µM | 

Row | Structure (SMILES) | TGI (HCT-116 colon) | TGI (UACC-257 melanoma) | TGI (OVCAR-4 ovarian) | TGI (A549 NSCLC) | TGI (NCI-H226 lung) | TGI (SK-MEL-2 melanoma) | TGI (HT29 colon) | TGI (MOLT-4 leukemia) | TGI (SNB-75 CNS) | TGI (PC-3 prostate) | GI50 (PC-3 prostate)
17 | COC(=O)C1(Cc2ccc3c(c2)CCC3)Cc2cc3c(cc2C1)CCC3 | > 100 µM | 62.2 µM | 89.3 µM | > 100 µM | > 100 µM | 49.3 µM | 89.3 µM | > 100 µM | > 100 µM | > 100 µM | 
18 | COc1cc(OCc2ccc3nc(OC)c(OC)nc3c2)cc(OC)c1OC | > 10 µM | > 10 µM | > 10 µM | > 10 µM | > 10 µM | > 2.29 µM | > 10 µM | > 10 µM | > 10 µM | > 4.95 µM | 
19 | CC1=CC(=O)CC2(C)CCC(C(C)CC(=O)CC(C)C)CC12 (stereo unspecified) | 30.4 µM | 64.1 µM | > 100 µM | 34.8 µM | 63.2 µM | > 100 µM | 76.8 µM | 40.6 µM | > 100 µM | 40.7 µM | 
20 | Cc1c2ccncc2c(C)c2c1[nH]c1ccccc12 | 1.68 µM | 4.64 µM | 2.66 µM | 2.96 µM | 5.46 µM | 6.79 µM | 3.88 µM | 1.75 µM | 2.64 µM | 8.55 µM | 1.2 µM
21 | COC(=O)C1(Cc2ccc3c(c2)CCC3)Cc2ccccc2C1=O (stereo unspecified) | 46.6 µM | 76 µM | > 100 µM | > 100 µM | 50.5 µM | 38.7 µM | 30.3 µM | 52.3 µM | > 100 µM | > 100 µM | 
22 | O=C1CC(Sc2nc3ccc(I)cc3c(=O)n2Cc2ccccc2)C(=O)NN1 (stereo unspecified) | 29.1 µM | 35.3 µM | 36.8 µM | 89.4 µM | 25.2 µM | 31.8 µM | 38.6 µM | 42.6 µM | 24.5 µM | 30.7 µM | 
23 | O=C(O)CC(NC(=O)/C(=C/c1ccccc1O)NC(=O)c1ccccc1)C(=O)O (stereo unspecified) | > 100 µM | > 100 µM | > 100 µM | > 100 µM | > 100 µM | > 100 µM | > 100 µM | > 100 µM | > 100 µM | > 100 µM | 
24 | CC1C(c2ccc3c(c2)OCO3)c2cc3c(cc2OC1N1CCOCC1)OCO3 (stereo unspecified) | 47.3 µM | > 100 µM | > 100 µM | > 100 µM | 81.7 µM | 58.8 µM | > 85 µM | 66.9 µM | 99.3 µM | > 100 µM | 
25 | COC(=O)C(CC(C)C)NC(=O)C(N)Cc1ccc(OCc2ccccc2)cc1 (stereo unspecified) (H-Tyr(Bn)-Leu-OMe; configuration not given here) | > 10 µM | > 10 µM | > 10 µM | > 10 µM | > 10 µM | > 10 µM | > 10 µM | > 10 µM | > 10 µM | > 10 µM | 
26 | C=C1C(=O)OC2/C=C(/C)C3(O)OC(C)(CC(OC(=O)C(C)C)C12)CC3OC(C)=O (stereo unspecified) | > 100 µM | 68 µM | > 65.5 µM | > 100 µM | > 87 µM | 49.7 µM | 22 µM | > 31.6 µM | > 100 µM | 62.9 µM | 
27 | NS(=O)(=O)c1ccc(NC(NC(=O)C(C(F)(F)F)C(F)(F)F)(C(F)(F)F)C(F)(F)F)cc1 | > 100 µM | > 100 µM | > 100 µM | > 100 µM | > 100 µM | > 100 µM | > 100 µM | > 100 µM | > 100 µM | > 100 µM | 
28 | N#CCCN(CCC#N)c1ccc(/C=C2\SC(=S)NC2=O)cc1Br | > 100 µM | > 100 µM | > 100 µM | > 100 µM | > 100 µM | > 100 µM | > 100 µM | > 100 µM | > 100 µM | > 100 µM | 
29 | O=C(CCCN1CCC2(CC1)C(=NC1CCCCC1)NC(=O)N2c1ccccc1)c1ccc(F)cc1 | 46.1 µM | 36 µM | > 100 µM | > 100 µM | 32.3 µM | 31.9 µM | 37 µM | 57.2 µM | 56 µM | 43.3 µM | 
30 | CC(C)CCn1nc(N)c2nc3ccccc3nc21 | > 100 µM | > 100 µM | > 100 µM | > 100 µM | > 100 µM | > 100 µM | > 100 µM | 94.9 µM | > 100 µM | > 100 µM | 
31 | Cn1ccnc1Sc1ccc(C=Nc2ccc3nc(SCC(=O)NC4CCCCC4)sc3c2)cc1[N+](=O)[O-] | > 100 µM | > 100 µM | > 100 µM | > 100 µM | > 100 µM | 54.1 µM | > 100 µM | > 100 µM | 8.84 µM | > 100 µM | 
32 | N#CC(=N)c1ncn(-c2ccccc2N)c1N | > 100 µM | > 100 µM | > 100 µM | > 100 µM | > 100 µM | > 100 µM | > 100 µM | > 100 µM | > 100 µM | > 100 µM | 

Source: PubChem BioAssay (NCI)
